According to patent US11434237B2, “Selective ligands for tau aggregates” (KARIN & STEN MORTSTEDT CBD SOLUTIONS AB, priority 2017, dated 2022):

Key:
[1] = molecular target: T1, tau aggregates (Homo sapiens, UniProt P10636); experiment: Compound and antibody AT100 double staining of AD brain tissue sections; type: binding
T1 construct: tissue sections (20 μm) from human AD brain; from tissue; host or cells: human AD brain tissue sections (20 μm)
Procedure: (§1) To achieve compound and antibody double staining of Aβ or tau aggregates, tissue sections (20 μm) from human AD brain were fixed in 70% EtOH at 4° C. for 3 min, rehydrated in distilled water and then incubated in PBS for 30 min. Sections were blocked and permeabilized in PBS with 5% normal goat serum and 0.1% triton X-100 (blocking buffer) for 1 h at room temperature (RT). Antibody 4G8 (Biolegend, San Diego, Calif., USA) reactive to Aβ, and AT100 (Thermo Fisher Scientific, Waltham, Mass., USA) directed against tau phosphorylated at […] (3) were diluted 1:500 and 1:1000, respectively, in blocking buffer and added to the sections. After 16 h incubation at 4° C. unbound antibody was removed by washing in PBS with 0.1% triton X-100 (PBS-T) 3×10 min. To visualize antibody binding to Aβ or tau aggregates sections were incubated with goat anti-mouse secondary antibody labelled with Alexa 647 (Thermo Fisher Scientific). The antibody was diluted 1:200 in blocking buffer and after 1 h incubation at RT sections were washed in PBS 3×10 min. Example Compound 3a, Example Compound 3b, Example Compound 3c, Example Compound 3d, Example Compound 3e, Example Compound 3f, Example Compound 3g, Example Compound 3h, Example Compound 3i, Example Compound 3j, Example Compound 3k, Example Compound 3m, Example Compound 3n, Example Compound 3o, Example Compound 3p, Example Compound 3q, Example Compound 3r, Example Compound 3s, Example Compound 3t, Example Compound 3u, Example Compound 8a, Comparative Example 1, Comparative Example 2, Comparative Example 3 and Comparative Example 4 were dissolved in DMSO to a concentration of 1.5 mM and then further diluted in PBS to a final concentration of 100 nM compound prior to staining. The tissue sections were then stained for 30 min at RT with these freshly prepared solutions containing 100 nM of the respective compound in PBS. After three washes in PBS the sections were mounted in Dako mounting medium for fluorescence (Dako Cytomation, Glostrup, Denmark) and allowed to dry overnight before analysis. Fluorescence images were collected using an inverted LSM 780 confocal microscope (Carl Zeiss, Oberkochen, Germany) with the following excitation/emission wavelengths optimized for each compound: 458/484-600 (Comparative Example 1, Comparative Example 3), 561/569-648 (Example Compound 3a, Example Compound 3b, Example Compound 3c, Example Compound 3d, Example Compound 3e, Example Compound 3f, Example Compound 3g, Example Compound 3h, Example Compound 3i, Example Compound 3j, Example Compound 3k, Example Compound 3m, Example Compound 3n, Example Compound 3o, Example Compound 3p, Example Compound 3q, Example Compound 3r, Example Compound 3s, Example Compound 3t, Example Compound 3u, Example Compound 8a, Comparative Example 2 and Comparative Example 4) and 633/638-755 (Alexa 647). To visualize autofluorescent lipofuscin excitation/emission wavelengths 405/410-480 or 405/410-514 were used.

[2] = molecular target: T2, Aβ aggregates (Homo sapiens, UniProt P05067); experiment: Compound and antibody 4G8 double staining of AD brain tissue sections; type: binding
T2 construct: compound and antibody double staining of Aβ or tau aggregates; from tissue; host or cells: human AD brain tissue sections (20 μm)
Procedure: as §1

[3] = Excitation and emission spectra of compounds in DMSO or PBS; type: physicochemical; conditions: 300 nM in DMSO or PBS pH 7.4
Procedure: Stock solutions of Example Compound 3a, Example Compound 3b, Example Compound 3c, Example Compound 3d and Example Compound 8a (1.5 mM in DMSO) were diluted to 300 nM in phosphate buffered saline (PBS, 10 mM phosphate, 140 mM NaCl, 2.7 mM KCl, pH 7.4) or DMSO. Excitation and emission spectra of the compounds were collected using an Infinite M1000 Pro microplate reader (Tecan, Männedorf, Switzerland).

[4] = system: Aβ and tau deposits; experiment: Co-staining of AD brain sections with PBB3 and Example Compound 3b; type: binding, human; conditions: simultaneous 100 nM PBB3 and 100 nM Example Compound 3b
Procedure: Frozen brain sections (20 μm) were fixed in 96% EtOH, rehydrated in 50% EtOH and de-ionized water and then incubated in phosphate buffered saline (PBS, 10 mM phosphate, 140 mM NaCl, 2.7 mM KCl, pH 7.4) for 10 min. Solutions containing 100 nM PBB3 and 100 nM Example Compound 3b or 100 nM q-FTAA-CN and 100 nM Example Compound 3a in PBS were added to the sections. After 30 min, the sections were washed with PBS and mounted with Dako fluorescent mounting medium (Dako Cytomation, Glostrup, Denmark). The mounting medium was allowed to solidify over night before collecting emission spectra of the compounds bound to misfolded A ? and tau using an inverted LSM 780 confocal microscope (Carl Zeiss, Oberkochen, Germany) with excitation wavelengths at 405 nm (PBB3 and q-FTAA-CN) and 561 nm (Example Compound 3a and Example Compound 3b).

[5] = molecular target: T1, tau aggregates; experiment: Example Compound 3b staining of AD brain sections pre-incubated with PBB3 or PBS; type: binding; conditions: FIG. 7F, pre-incubated with 1 μM PBB3, then 10 nM Example Compound 3b
Procedure: (§2) Frozen brain sections (20 μm) were fixed in 96% EtOH, rehydrated in 50% EtOH and de-ionized water and then incubated in phosphate buffered saline (PBS, 10 mM phosphate, 140 mM NaCl, 2.7 mM KCl, pH 7.4) for 10 min. The sections were stained with solutions containing 1 ? M PBB3 or 1 ? M q-FTAA-CN in PBS for 30 min and after rinsing three times with PBS, the sections was stained with a solution containing 10 nM Example Compound 3b. After 30 min, the sections were washed with PBS and mounted with Dako fluorescent mounting medium (Dako Cytomation, Glostrup, Denmark). The mounting medium was allowed to solidify over night before collecting emission spectra of the compounds bound to misfolded Aβ and tau using an inverted LSM 780 confocal microscope (Carl Zeiss, Oberkochen, Germany) with excitation wavelengths at 405 nm (PBB3 and q-FTAA-CN) and 561 nm (Example Compound 3b).

[6] = system: Aβ and tau deposits; experiment: Staining of AD brain sections with PBB3 alone; type: binding, human; conditions: 100 nM PBB3 alone in PBS pH 7.4, FIG. 6A
Procedure: as §2, with “100 nM” for “1 ? M”, “PBB3” for “PBB3 or 1 ? M q-FTAA-CN”, “with” for “with PBS, the sections was stained with a solution containing 10 nM Example Compound 3b. After 30 min, the sections were washed with”, “PBS” for “PBS and”, “compound” for “compounds”, “(PBB3).” for “(PBB3 and q-FTAA-CN) and 561 nm (Example Compound 3b).”

T2 sequence (P05067 672-713 limits assumed): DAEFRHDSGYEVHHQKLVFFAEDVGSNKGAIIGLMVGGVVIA
T1 sequence (P10636 1-441 isoform P10636-8): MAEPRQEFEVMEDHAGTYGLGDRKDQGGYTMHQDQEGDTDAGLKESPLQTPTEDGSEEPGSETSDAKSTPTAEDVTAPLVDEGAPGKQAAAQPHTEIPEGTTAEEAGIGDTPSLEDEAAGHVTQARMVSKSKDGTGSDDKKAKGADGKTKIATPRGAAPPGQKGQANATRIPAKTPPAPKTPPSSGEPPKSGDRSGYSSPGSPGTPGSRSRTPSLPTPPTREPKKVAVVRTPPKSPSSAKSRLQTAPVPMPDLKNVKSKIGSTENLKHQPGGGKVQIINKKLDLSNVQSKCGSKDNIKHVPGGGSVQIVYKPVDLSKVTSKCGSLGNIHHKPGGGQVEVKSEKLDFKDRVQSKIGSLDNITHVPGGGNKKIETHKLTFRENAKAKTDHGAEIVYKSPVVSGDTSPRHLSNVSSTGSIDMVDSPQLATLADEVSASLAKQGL

| Fluorescence from tested compound observed ([1]; 100 nM compound, human AD brain tissue sections, double staining with tau antibody AT-100) | Overlap between Fluorescence from tested compound and fluorescence from AT-100 observed ([1]; 100 nM compound, human AD brain tissue sections, tau antibody AT-100) | Fluorescence from AT-100 observed ([1]; signal of tau antibody AT-100 in the section stained with 100 nM of the compound) | Overlap between Fluorescence from tested compound and fluorescence from 4G8 observed ([2]; 100 nM compound, human AD brain tissue sections, Aβ antibody 4G8) | Fluorescence from tested compound observed ([2]; 100 nM compound, human AD brain tissue sections, double staining with Aβ antibody 4G8) | Fluorescence from 4G8 observed ([2]; signal of Aβ antibody 4G8 in the section stained with 100 nM of the compound) | Structure (SMILES) | Labelling of immune-positive NFTs and dystrophic neurites ([1]; 100 nM compound, AT100 co-staining, AD brain sections) | Excitation and emission spectra when switching solvent from DMSO to PBS [3] | Fluorescence from PBB3 observed ([4]; FIG. 7E) | Deposits labelled [4] | Fluorescence from PBB3 observed [5] | Deposits labelled [6] |
| --- | --- | --- | --- | --- | --- | --- | --- | --- | --- | --- | --- | --- |
| yes | yes | yes | no correlation and no | yes | yes | COC(=O)c1ccc(-c2ccc(/C=C/c3nc4ccccc4s3)s2)s1 [Example Compound 8a] | labelled both immune-positive NFTs and dystrophic neurites | solvatochromatic behavior rendering a blue-shifted excitation spectrum, as well as a red-shifted emission spectrum |  |  |  |  |
|  |  |  |  |  |  | CNc1ccc(/C=C/C=C/c2nc3ccc(O)cc3s2)cn1 [PBB3, reference compound] |  |  | yes | Aβ deposits were visualized by the fluorescence from PBB3 | both the Aβ and tau deposits exhibited strong PBB3 fluorescence and yes | labelled both Aβ and tau deposits |
